Patent publication EP1581471B9, “CYCLOPENTENONE DERIVATIVES FOR CANCER THERAPY” (Dabur Research Foundation, priority 2002, dated 2004)
Converted amounts (≈) assume the structure as drawn.

Tests used:
[1] = system: DU145; assay: three day MTT cytotoxicity assay; format: cell-based, human; details: DU145 (prostate), 72 hours
Protocol: (§1) A number of the cyclopentenone derivatives were tested for cytotoxicity against 9 human tumor cell lines. Briefly, a three day MTT cytotoxicity assay was performed, which is based on the principle of uptake of MTT (3-(4,5-dimethylthiazol-2-yl)-2,5-diphenyl tetrazolium bromide), a tetrazolium salt, by the metabolically active cells where it is metabolized by active mitochondria into a blue colored formazan product that is read spectrophotometrically. MTT was dissolved in phosphate buffered saline with a pH of 7.4 to obtain an MTT concentration of 5mg/ml; the resulting mixture was filtered through a 0.22 micron filter to sterilize and remove a small amount of insoluble residue. For each type of tumor cell, 10000 to 15000 cells were seeded in a 96-well culture plate and incubated with the individual cyclopentenone derivatives in a CO2 incubator for a total of 72 hours. Control cells not treated with the cyclopentenone derivatives were similarly incubated. The assay was terminated by adding 100 ug (20 ul) of MTT to each well, then incubating for additional one hour, and finally adding 50 ul of 10% SDS-0.01N HCl to each well to lyse the cells and dissolve formazan. After incubating for one hour, the plate was read spectrophotometrically at 540 nm and the percentage of cytotoxicity calculated using the following formula: Cytotoxicity percentage = 100 × [1-(X/R1)], [formula] where X = (absorbance of treated sample at 540 nm) - (absorbance of blank at 540 nm) R1 = absorbance of control sample at 540 nm.
(§2) The ED50 Values of the cytotoxicity defined as the concentration at which 50 % of the cells are killed in vitro was calculated for each cell line treated with each of the cyclopentenone derivatives.
(§3) The cell lines are PTC (all colon), MOLT-4 (leukemia), SW620 […], DU145 (prostate), KB (oral squamous cell), L132 (lung), MIAPaCa2 (Pancreas), Hep2, (larynx), PA-1 (ovary), HuTu80 (duodenum), ECV 304 (endothelial), and 293 (kidney).

[2] = system: ECV 304; assay: three day MTT cytotoxicity assay; format: cell-based, human; details: ECV 304 (endothelial), 72 hours
Protocol: as §1, §2, §3

[3] = system: Hep2; assay: three day MTT cytotoxicity assay; format: cell-based, human; details: Hep2 (larynx), 72 hours
Protocol: as §1, §2, §3

[4] = system: KB; assay: three day MTT cytotoxicity assay; format: cell-based, human; details: KB (oral squamous cell), 72 hours
Protocol: as §1, §2, §3

[5] = system: L132; assay: three day MTT cytotoxicity assay; format: cell-based, human; details: L132 (lung), 72 hours
Protocol: as §1, §2, §3

[6] = system: MIAPaCa2; assay: three day MTT cytotoxicity assay; format: cell-based, human; details: MIAPaCa2 (Pancreas), 72 hours
Protocol: as §1, §2, §3

[7] = system: MOLT-4; assay: three day MTT cytotoxicity assay; format: cell-based, human; details: MOLT-4 (leukemia), 72 hours
Protocol: as §1, §2, §3

[8] = system: PA-1; assay: three day MTT cytotoxicity assay; format: cell-based, human; details: PA-1 (ovary), 72 hours
Protocol: as §1, §2, §3

[9] = system: PTC; assay: three day MTT cytotoxicity assay; format: cell-based, human; details: PTC (colon), 72 hours
Protocol: as §1, §2, §3

[10] = system: SW620; assay: three day MTT cytotoxicity assay; format: cell-based, human; details: 72 hours
Protocol: as §1, §2, §3

[11] = system: tubulin; assay: tubulin polymerization in vitro (absorbance at 340 nm); format: biochemical; details: tubulin 1mg/ml, 37°C, pH 6.9; read-out: IC50 values (uM) for inhibition of Tubulin Polymerization
Protocol: The cyclopentenone derivatives were checked for their effects on tubulin polymerization in vitro. Briefly, the tubulin assembly reaction was performed at 37°C in buffer containing 80 mM PIPES, 1mM EGTA, 1.0 mM GTP and 1mM MgCl2 (pH 6.9) at a tubulin concentration of 1mg/ml in the presence or absence of the cyclopentenone derivatives. The final concentration of the cyclopentenone derivatives in the reaction mixture varied from 1-5uM. The derivatives were dissolved in 0.1% DMSO. The control experiments were carried out with 0.1% DMSO. The tubulin polymerization was followed by measurement of the absorbance of the solution at 340 nm every 30 seconds. […] Thus the cyclopentenone derivatives mediated their observed anticancer activities by tubulin depolymerization.

[12] = system: Caspase-3; assay: Caspase-3 induction in KB cells (colorimetric substrate DEVD-pNA); format: cell-based, Human; details: 5ug/ml
Protocol: Human squamous cell carcinoma (KB) were plated in a 25 cm^2 flask. When cultures achieved confluence, the cyclopentenone derivative of structure 20 was added to the cells. The final concentration of derivative of the structure 20 in the flask was 5ug/ml. The untreated wells served as controls. The cells were incubated with the drug for 2 different time points of 6 and 16 hours at 37°C. The cells were collected by centrifugation at 2000 r.p.m. for 10 minutes. The supernatant was gently removed and discarded while Lysis Buffer was added to the cell pellet (25ul of lysis buffer per […]). The cell lysate was incubated on ice for 10 minutes and centrifuged at 10,000-x g for 1 minute. The supernatant was transferred to a new tube and kept on ice. 50ul of the cell lysate was added in a 96 well plate. To this was added 2x Reaction Buffer. Prior to using reaction buffer, 10ul of fresh DTT stock per 1 ml of 2x Reaction Buffer was added. To each well 5ul of Caspase-3 colorimetric substrate (DEVD-pNA) was added. The plate was incubated for 1-2 hours at […]. and read at 405nm.
The level of caspase enzymatic activity in the cell lysate is directly proportional to the absorbance at 405nm. […]

[13] = system: VEGF; assay: VEGF levels in ECV304 endothelial cells (ELISA); format: cell-based, Human; details: 5ug/ml, 4 hours
Protocol: Human endothelial cells (ECV304) were plated at the density of 8-10 x10^5 cells per 2 ml in a six well plate. After an overnight incubation of cells at 37°C, cyclopentenone derivatives at a concentration of 5ug/ml was added to the wells. The untreated wells served as controls. The plates were incubated for 4 hours at 37°C. The medium was collected from all the wells (control and treated) and spun down at 2000 r.p.m to remove the cellular material. The supernatant was collected and used for ELISA (Quantikine human VEGF, R&D Systems). The assay employs the quantitative sandwich enzyme immunoassay technique. A monoclonal antibody specific for VEGF has been pre-coated onto a microplate. Standards and samples were pipetted into the wells and VEGF present was bound by the immobilized antibody. After washing away the unbound substances, an enzyme-linked polyclonal antibody specific for VEGF was added to the wells. Following a wash to remove any unbound antibody-enzyme reagent, a substrate solution was added to the wells and color developed in proportion to the amount of VEGF bound in the initial step. The optical density of each well was determined within 30 minutes using a microplate reader set to 450nm and reference wavelength at 540nm. The VEGF levels were inhibited by the addition of cyclopentenone derivatives in vitro.

[14] = system: 293; assay: three day MTT cytotoxicity assay; format: cell-based, human; details: 293 (kidney), 72 hours
Protocol: as §1, §2, §3

[15] = system: HuTu80; assay: three day MTT cytotoxicity assay; format: cell-based, human; details: HuTu80 (duodenum), 72 hours
Protocol: as §1, §2, §3

| Structure (SMILES) | ED50 (ug/ml) DU145 [1] [µg/mL] | ED50 (ug/ml) ECV 304 [2] [µg/mL] | ED50 (ug/ml) Hep2 [3] [µg/mL] | ED50 (ug/ml) KB [4] [µg/mL] | ED50 (ug/ml) L132 [5] [µg/mL] | ED50 (ug/ml) MiaPaca [6] [µg/mL] | ED50 (ug/ml) MOLT4 [7] [µg/mL] | ED50 (ug/ml) PA1 [8] [µg/mL] | ED50 (ug/ml) PTC [9] [µg/mL] | ED50 (ug/ml) SW620 ([10]; SW620 (ovary)) [µg/mL] | IC50 [11] [µM] | Percent Induction of Caspase-3 6 hours [12] [%] | Percent Induction of Caspase-3 16 hours [12] [%] | Percent Reduction in VEGF [13] [%] | ED50 (ug/ml) 293 [14] [µg/mL] | ED50 (ug/ml) HuTu80 [15] [µg/mL] | ED50 (ug/ml) SW620 ([10]; SW620 (colon)) [µg/mL] |
| --- | --- | --- | --- | --- | --- | --- | --- | --- | --- | --- | --- | --- | --- | --- | --- | --- | --- |
| COc1ccc(C2=C(c3cc(OC)c(OC)c(OC)c3)C(=O)C(O)C2)cc1 (stereo not drawn) [Compound 48] | >100 | >100 | <1.0 | 8 ± 2.1 (≈ 21.6 µM) | 9.0 ± 3.3 (≈ 24.3 µM) | 79 ± 9.5 (≈ 213 µM) | <1.0 | <1.0 | 6.0 ± 1.5 (≈ 16.2 µM) | <1.0 | 2.1 ± 0.1 | 18.4 ± 1.1 | 22.7 ± 1.5 | 23.7 ± 2.2 | – | – | – |
| COc1ccc(C2=C(c3cc(OC)c(OC)c(OC)c3)C(=O)C(O[Si](C)(C)C(C)(C)C)C2)cc1 (stereo not drawn) [Compound 52, O-tert-Butyldimethylsilyloxy-3-(4-methoxyphenyl)-2-(3,4,5-trimethoxyphenyl)-cyclopent-2-en-1-one] | 28 ± 4.0 (≈ 57.8 µM) | 16 ± 4.0 (≈ 33 µM) | 16 ± 3.0 (≈ 33 µM) | 7.0 ± 3.0 (≈ 14.4 µM) | 9.0 ± 2.5 (≈ 18.6 µM) | <1.0 | 3.0 ± 1.5 (≈ 6.19 µM) | 7.0 ± 3.5 (≈ 14.4 µM) | 16 ± 3.6 (≈ 33 µM) | 5.0 ± 1.0 (≈ 10.3 µM) | – | – | – | – | – | – | – |
| COc1cc(C2=C(c3ccc(SC)cc3)CC(O[Si](C)(C)C(C)(C)C)C2=O)cc(OC)c1OC (stereo not drawn) [Compound 55, 5-tert-Butyldimethylsilyloxy-3-(4-thiomethylphenyl)-2-(3,4,5 trimethoxyphenyl)-cyclopent-2-en-1-one] | >100 | >100 | >100 | 10 ± 1.5 (≈ 20 µM) | <1.0 | <1.0 | <1.0 | <1.0 | 14 ± 3.5 (≈ 28 µM) | <1.0 | – | – | – | – | – | – | – |
| COc1ccc(C2=C(c3cc(OC)c(OC)c(OC)c3)C(=O)C(O[Si](C)(C)C(C)(C)C)C2)cc1OC(C)C (stereo not drawn) [Compound 56, 5-tert-Butyldimethylsilyloxy-3-(4-methoxy-3-i-propoxyphenyl)-2-(3,4,5-trimethoxyphenyl)-cyclopent-2-en-1-one] | 6.3 ± 2.1 (≈ 11.6 µM) | >100 | 7.1 ± 1.5 (≈ 13.1 µM) | 7.5 ± 3.5 (≈ 13.8 µM) | 7 (≈ 12.9 µM) | >100 | 22.5 ± 4.0 (≈ 41.5 µM) | 7.1 ± 1.5 (≈ 13.1 µM) | >100 | – | – | – | – | – | >100 | 6 ± 0.5 (≈ 11.1 µM) | 9 ± 1.5 (≈ 16.6 µM) |
| COc1ccc(C2=C(c3cc(OC)c(OC)c(OC)c3)C(=O)C(O)C2)cc1F (stereo not drawn) [Compound 64, 5-Hydroxy-3-(3-fluoro-4-methoxyphenyl)-2-(3,4,5-trimethoxyphenyl)-cyclopent-2-en-1-one] | 27 ± 3.5 (≈ 69.5 µM) | 19.5 ± 4.5 (≈ 50.2 µM) | <1 | 4.5 ± 1.5 (≈ 11.6 µM) | <1 | 64 ± 3.5 (≈ 165 µM) | – | – | 20 ± 2.5 (≈ 51.5 µM) | – | – | – | – | – | >100 | <1 | <1 |
| COc1ccc(C2=C(c3cc(OC)c(OC)c(OC)c3)/C(=N\O)C(O)C2)cc1F (stereo not drawn) [Compound 66] | 10 ± 5.1 (≈ 24.8 µM) | 43 ± 4.5 (≈ 107 µM) | <1 | <1 | <1 | 94 ± 10.0 (≈ 233 µM) | – | – | 27 ± 3.5 (≈ 66.9 µM) | – | 2 ± 0.6 | 17.0 ± 1.0 | 22.1 ± 0.6 | 12.9 ± 2.9 | >100 | 9 ± 3.1 (≈ 22.3 µM) | <1 |
| COc1ccc(C2=C(c3cc(OC)c(OC)c(OC)c3)C(=O)C(O)C2)cc1Cl (stereo not drawn) [Compound 67, 5-Hydroxy-3-(3-chloro-4-methoxyphenyl)-2-(3,4,5-trimethoxyphenyl)-cyclopent-2-en-1-one] | 40 ± 8.5 (≈ 98.8 µM) | 20 ± 3.5 (≈ 49.4 µM) | <1 | 2.5 ± 0.1 (≈ 6.18 µM) | <1 | >100 | – | – | 30 ± 4.0 (≈ 74.1 µM) | <1 | – | – | – | – | >100 | 29 ± 2.5 (≈ 71.6 µM) | – |
| COc1ccc(C2=C(c3cc(OC)c(OC)c(OC)c3)C(=O)C(O)C2)cc1O (stereo not drawn) [Compound 74] | – | – | – | – | – | – | – | – | – | – | 1.8 ± 0.5 | 21.8 ± 2.8 | 28.4 ± 2.1 | 16.9 ± 0.5 | – | – | – |
